EP2966079B1, “PYRIDOPYRIMIDINE OR PYRIMIDOPYRIMIDINE COMPOUND, PREPARATION METHOD, PHARMACEUTICAL COMPOSITION AND USE THEREOF” (Shanghai Institute of Materia Medica, Chinese Academy of …, priority 2013, dated 2014)

Assays:
mTOR = mTOR (Homo sapiens, UniProt P42345); assay: mTOR Kinase test (LANCE Ultra, ULight-4EBP1 substrate); format: biochemical; conditions: 1.7 nM mTOR, 50 nM ULight-4EBP1, 100 µM ATP, 1.5 hours reaction
[1] = tested on: human prostate cancer LNCap; assay: Cell proliferation assay (MTS method), LNCap; format: cell-based; conditions: 72 h, LNCap cells, cultured with compound for 3 days
Description: (§1) Cell proliferation assay was based on two types of cell lines, i.e., human brain glioma U87MG and human prostate cancer LNCap, both of which were from ATCC. U87MG and LNCap contain PTEN gene deletion, and belongs to mTOR signal-dependent tumor cells. Cell culture media and related reagents were from GIBCO. U87MG cells were cultured in a MEM complete medium (containing 10% fetal bovine serum, 100 U/mL penicillin and 100 µg/mL streptomycin). […] Cells/compound was cultured for 3 days, and MTS method was used to test cell proliferation. MTS and PMS were purchased from Sigma company, a stock solution of MTS/PMS (20:1) was added into the test cells with 20 µL/well. After a suitable time of incubation, the proliferation assay results was recorded on a 96 well plate microplate reader. Relative cell viability% = (A490valueofadministeredgroup−lightvalueoftheblankgroup)/(lightvalueofDMSOgroup−lightvalueofblankgroup) × 100%. [formula]
(§2) The experimental data were processed with Microsoft Office Excel and Graphpad PRISM 5 to calculate IC50.

human brain glioma U87MG = assay: Cell proliferation assay (MTS method), U87MG; format: cell-based; conditions: U-87 MG, 72 h, U87MG cells, cultured with compound for 3 days
Description: as §1, §2

mTOR, sequence (P42345 1362-2549): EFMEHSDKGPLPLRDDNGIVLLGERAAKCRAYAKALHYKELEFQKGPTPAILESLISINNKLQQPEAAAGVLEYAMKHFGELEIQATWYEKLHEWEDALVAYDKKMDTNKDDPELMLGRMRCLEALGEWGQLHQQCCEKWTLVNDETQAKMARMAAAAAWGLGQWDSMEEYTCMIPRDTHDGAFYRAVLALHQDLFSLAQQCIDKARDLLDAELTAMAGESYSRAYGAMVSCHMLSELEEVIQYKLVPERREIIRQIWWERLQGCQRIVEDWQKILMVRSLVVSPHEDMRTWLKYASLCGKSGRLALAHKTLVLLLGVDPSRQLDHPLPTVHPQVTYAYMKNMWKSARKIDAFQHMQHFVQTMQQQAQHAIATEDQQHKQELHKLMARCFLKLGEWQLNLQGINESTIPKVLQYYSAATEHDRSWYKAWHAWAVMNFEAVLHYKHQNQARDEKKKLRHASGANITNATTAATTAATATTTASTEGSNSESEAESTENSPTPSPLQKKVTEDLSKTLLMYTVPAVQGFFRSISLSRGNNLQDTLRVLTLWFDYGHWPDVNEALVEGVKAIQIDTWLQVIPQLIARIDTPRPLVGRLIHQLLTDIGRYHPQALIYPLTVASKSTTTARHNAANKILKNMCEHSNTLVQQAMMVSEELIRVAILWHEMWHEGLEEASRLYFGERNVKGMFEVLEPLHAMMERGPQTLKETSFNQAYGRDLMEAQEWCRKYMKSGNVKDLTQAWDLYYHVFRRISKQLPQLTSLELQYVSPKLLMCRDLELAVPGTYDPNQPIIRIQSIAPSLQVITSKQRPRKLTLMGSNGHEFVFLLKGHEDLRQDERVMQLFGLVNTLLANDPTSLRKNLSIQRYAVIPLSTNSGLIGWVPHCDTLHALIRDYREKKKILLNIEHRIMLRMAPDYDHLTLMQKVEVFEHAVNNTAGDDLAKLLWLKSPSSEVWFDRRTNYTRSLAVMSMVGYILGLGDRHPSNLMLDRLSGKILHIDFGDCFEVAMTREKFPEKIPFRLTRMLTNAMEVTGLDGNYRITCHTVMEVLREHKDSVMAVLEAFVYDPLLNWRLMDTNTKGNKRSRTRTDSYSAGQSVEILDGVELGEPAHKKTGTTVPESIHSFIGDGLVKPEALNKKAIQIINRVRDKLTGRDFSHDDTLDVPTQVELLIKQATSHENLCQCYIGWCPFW

COc1ccc(-c2cc3nc(N4C[C@@H](C)O[C@@H](C)C4)nc(N4C[C@@H](C)O[C@@H](C)C4)c3cn2)cc1CO [Compound 17, (5-(2,4-di((2S,6R)-2,6-dimethyl)pyrido[4,3-d]pyrimidin-7-yl)-2-methoxyphenyl)methanol]
IC50 (mTOR): > 20 µM | IC50 [1]: 21.4 µM | IC50 (human brain glioma U87MG): > 60 µM
